We go through 37 compounds from patent US20200352931A1, “OXALAMIDES AS MODULATORS OF INDOLEAMINE 2,3-DIOXYGENASE” (PHENEX DISCOVERY VERWALTUNGS-GMBH, priority 2017, published 2020).

One may read the IC50 as the concentration needed to halve the response being measured.

The structures appear in SMILES notation.

T1 sequence (P14902 whole entry): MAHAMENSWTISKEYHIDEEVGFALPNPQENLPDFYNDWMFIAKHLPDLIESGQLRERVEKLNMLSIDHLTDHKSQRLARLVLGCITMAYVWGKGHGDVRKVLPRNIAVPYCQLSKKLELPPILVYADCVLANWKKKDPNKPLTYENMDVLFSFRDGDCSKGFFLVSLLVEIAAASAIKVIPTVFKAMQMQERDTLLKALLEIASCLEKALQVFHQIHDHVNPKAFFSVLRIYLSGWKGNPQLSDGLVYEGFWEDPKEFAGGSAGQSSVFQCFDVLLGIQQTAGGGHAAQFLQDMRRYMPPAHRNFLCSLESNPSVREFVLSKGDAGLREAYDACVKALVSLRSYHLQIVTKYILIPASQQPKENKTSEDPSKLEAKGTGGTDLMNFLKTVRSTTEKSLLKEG

This test concerns the target T1, Indoleamine 2,3-Dioxygenase (IDO1) in SKOV-3 cells (Homo sapiens, UniProt P14902).
T1 construct: endogenous in cells; host or cells: SKOV-3 (ATCC HTB-77), stimulated with 50 ng/ml interferon gamma
As to the kind of experiment: SKOV-3 cellular indoleamine 2,3-dioxygenase assay. The conditions noted are these: 50 ng/ml Interferon gamma, 100 μM L-Tryptophan, 24 hours, N-Formylkynurenin fluorescence, read-out: cell based activity (IC50). The protocol:
SKOV-3 Cellular Indoleamine 2,3-Dioxygenase Assay
SKOV-3 cells were obtained from the American Type Culture Collection (ATCC® HTB-77™) and maintained in McCoy's medium (Pan Biotech) supplemented with 10% fetal bovine serum and 1% Penicilin/Streptomycin. Cells were kept at 37° C. in a humidified incubator with 5% CO2. For assay preparation, cells were seeded at a density of 2*10^5/m into black clear bottom 96 well plates in 100 μl medium/well supplemented with 50 ng/ml Interferon gamma (eBioscience, Thermo Fisher Scientific). After cells fully adhered to the plate, dilution series of compounds were added in medium containing additional L-Tryptophan to a final L-Tryptophan concentration of 100 μM. The cells were incubated for 24 hours. Detection of produced N-Formylkynurenin was performed by addition of 3-Methylpiperidine to a final concentration of 200 mM. The plates were sealed and heated to 65° C. for 20 minutes in a water bath. After cooling the fluorescence of each well was recorded with a Victor™ X4 (PerkinElmer) plate reader at an emission wavelength of 535 nm and excitation at 405 nm (Tomek et al.; Anal Bioanal Chem (2013) 405:2515-2524., Tomek et al.; Biochim Biophys Acta. 2015 September; 1850(9):1772-80).
Turning to `NC(=O)c1ccc(NC(=O)C(=O)N2CCC(c3ccnc4ccc(F)cc34)CC2)cc1` [5/9], the IC50 was above 1000 nM. Next, `CS(=O)(=O)c1ccc(NC(=O)C(=O)N2CCC(c3ccnc4ccc(F)cc34)CC2)cc1` [5/10]: above 1000 nM. Consider `O=C(Nc1ccc(C(F)(F)F)cn1)C(=O)N1CCC(c2ccccc2Cc2ccccc2)CC1` [6/1], for which the IC50 is above 1000 nM. Consider `O=C(Nc1ccc(C(F)(F)F)cn1)C(=O)N1CCC(c2ccncc2-c2ccccc2)CC1` [6/2], for which the concentration for half-maximal inhibition (IC50) is above 1000 nM. Next, `O=C(Nc1ccc(C(F)(F)F)cc1)C(=O)N1CCC(c2ccnc3ccc(F)cc23)CC1` [7/1]: below 100 nM.

For the compound `O=C(Nc1csc(Cl)c1)C(=O)N1CCC(c2ccnc3ccc(F)cc23)CC1` [7/2], the IC50 is below 100 nM. As for `O=C(N[C@@H]1CCc2ccccc21)C(=O)N1CCC(c2ccnc3ccc(F)cc23)CC1` [8/1], the IC50 was above 1000 nM.

Regarding `O=C(N[C@H]1CCc2ccccc21)C(=O)N1CCC(c2ccnc3ccc(F)cc23)CC1` [8/2], the 50% inhibitory concentration (IC50) is above 1000 nM. The value for `O=C(NC1CCC(F)(F)CC1)C(=O)N1CCC(c2ccnc3ccc(F)cc23)CC1` [8/3] was above 1000 nM; that for `O=C(NCC1CC1)C(=O)N1CCC(c2ccnc3ccc(F)cc23)CC1` [8/4] was above 1000 nM. Consider `O=C(NC1CCC2(CC1)CC2)C(=O)N1CCC(c2ccnc3ccc(F)cc23)CC1` [8/5], for which the IC50 is above 1000 nM. The value for `O=C(NC1CCC(C(F)(F)F)CC1)C(=O)N1CCC(c2ccnc3ccc(F)cc23)CC1` (stereo not shown) [8/6] was above 1000 nM; that for `O=C(Nc1ccc(Cl)cn1)C(=O)N1CCC2(CC1)OCc1ccccc12` [100/1] was 100 to 1000 nM.

With `O=C(Nc1ccc(Cl)cn1)C(=O)N1CCC2(CC1)COc1ccccc12` [100/2], the IC50 fell in the range of 100 to 1000 nM.

In the case of `CN1C(=O)C2(CCN(C(=O)C(=O)Nc3ccc(Cl)cn3)CC2)c2ccccc21` [100/4], the IC50 was above 1000 nM. Next, `O=C(Nc1ccc(Cl)cn1)C(=O)N1CCC2(CC1)OCc1ccncc12` [100/5]: above 1000 nM.

In the case of `O=C(Nc1ccc(Cl)cn1)C(=O)N1CCC2(CC1)NC(=O)c1ccccc12` [100/6], the IC50 is above 1000 nM. Next, `CN1C(=O)c2ccccc2C12CCN(C(=O)C(=O)Nc1ccc(Cl)cn1)CC2` [100/7]: above 1000 nM; `O=C(Nc1ccc(Cl)cn1)C(=O)N1CCC2(CC1)OCc1cc(Cl)ccc12` [100/8]: 100 to 1000 nM. For `O=C(Nc1ccc(Cl)cc1)C(=O)N1CCC2(CC1)OCc1cc(Cl)ccc12` [100/9], the IC50 is below 100 nM. As for `O=C(Nc1ccc(Cl)cn1)C(=O)N1CCC2(CC1)OCc1cc(C(F)(F)F)ccc12` [100/11], the IC50 was below 100 nM. The value for `O=C(Nc1ccc(Cl)cc1)C(=O)N1CCC2(CC1)OCc1cc(C(F)(F)F)ccc12` [100/12] was below 100 nM. Regarding `O=C(Nc1ccc(Cl)cc1)C(=O)N1CCC2(CC1)OCc1cc(C(F)(F)F)c(F)cc12` [100/13], the IC50 was below 100 nM. With `N#Cc1ccc2c(c1)COC21CCN(C(=O)C(=O)Nc2ccc(Cl)cc2)CC1` [100/14], the IC50 lay in the range of 100 to 1000 nM. As to `O=C(Nc1ccc(Cl)cn1)C(=O)N1CCC2(CC1)OCc1ccc(Cl)cc12` [100/15], the IC50 is above 1000 nM. The value for `O=C(Nc1ccc(Cl)cn1)C(=O)N1CCC(c2ccnc3ccc(F)cc23)CC1` [Example 2, N-(5-Chloropyridin-2-yl)-2-(4-(6-fluoroquinolin-4-yl)piperidin-1-yl)-2-oxoacetamide] was below 100 nM.

As to `O=C(Nc1ccc(Cl)cn1)C(=O)N1CCC(c2ccnc3ccccc23)CC1` [Example 3, N-(5-Chloropyridin-2-yl)-2-oxo-2-(4-(quinolin-4-yl)piperidin-1-yl)acetamide], the half-maximal inhibitory concentration (IC50) is below 100 nM. Turning to `C[C@H]1CC[C@H](NC(=O)C(=O)N2CCC(c3ccnc4ccccc34)CC2)CC1` [Example 4, N-((1r,4r)-4-Methylcyclohexyl)-2-oxo-2-(4-(quinolin-4-yl)piperidin-1-yl)acetamide], the IC50 lay within 100 to 1000 nM. Next, `O=C(N[C@H]1CCc2ccccc2C1)C(=O)N1CCC(c2ccnc3ccc(F)cc23)CC1` [Example 5, (S)-2-(4-(6-Fluoroquinolin-4-yl)piperidin-1-yl)-2-oxo-N-(1,2,3,4-tetrahydro-naphthalen-2-yl)acetamide]: 100 to 1000 nM; `O=C(Nc1ccc(Cl)cn1)C(=O)N1CCC(c2cccc3ccccc23)CC1` [Example 6, N-(5-Chloropyridin-2-yl)-2-(4-(naphthalen-1-yl)piperidin-1-yl)-2-oxoacetamide]: 100 to 1000 nM. The value for `O=C(Nc1ccc(CCCl)cc1)C(=O)N1CCC(c2ccnc3ccc(F)cc23)CC1` [Example 7, N-(4-(2-Chloroethyl)phenyl)-2-(4-(6-fluoroquinolin-4-yl)piperidin-1-yl)-2-oxoacetamide] was below 100 nM; that for `CC(NC(=O)C(=O)N1CCC(c2ccnc3ccc(F)cc23)CC1)c1ccccc1` (stereo not shown) [Example 8, 2-(4-(6-Fluoroquinolin-4-yl)piperidin-1-yl)-2-oxo-N-(1-phenylethyl)acetamide] was above 1000 nM. The value for `O=C(Nc1ccc(Cl)cn1)C(=O)N1CCC(c2ccc(C(=O)O)c3ccccc23)CC1` [Example 9, 4-(1-(2-((5-Chloropyridin-2-yl)amino)-2-oxoacetyl)piperidin-4-yl)-1-naphthoic Acid] was above 1000 nM; that for `O=C(Nc1ccc(Cl)cn1)C(=O)N1CCC2(CCc3ccccc32)CC1` [Example 100] was below 100 nM; that for `O=C(Nc1ccc(Cl)cc1)C(=O)N1CCC2(CC1)COc1cc(C(F)F)ccc12` [Example 101, N-(4-Chlorophenyl)-2-(6-(difluoromethyl)-2H-spiro[benzofuran-3,4′-piperidin]-1′-yl)-2-oxoacetamide] was below 100 nM. With `O=C(Nc1ccc(Cl)cc1)C(=O)N1CCCC2(CC1)COc1cc(C(F)(F)F)ccc12` (stereo not shown) [Example 102, N-(4-Chlorophenyl)-2-oxo-2-(6′-(trifluoromethyl)-2′H-spiro[azepane-4,3′-benzofuran]-1-yl)acetamide], the IC50 lay in the range of 100 to 1000 nM. The value for `O=C(NC1Cc2ccc(F)cc21)C(=O)N1CCC2(CC1)COc1cc(C(F)(F)F)ccc12` (stereo not shown) [Example 103, N-(4-Fluorobicyclo[4.2.0]octa-1(6),2,4-trien-7-yl)-2-oxo-2-(6-(trifluoromethyl)-2H-spiro[benzofuran-3,4′-piperidin]-1′-yl)acetamide] was above 1000 nM.
